Test results published in patent US20030144346A1, “Methods and compositions for regulation of 5-alpha reductase activity” (priority 1997, published 2003).
Read-outs that look alike come from different tables or passages of the source.

Assays:
[1] = biological target: T1, type 2 human 5α-reductase (HRED2) (Homo sapiens, UniProt P31213); test: Cell free assay of 5α-reductase, microsomes of rat 1A cells expressing type 2 isoenzyme (HRED2); type: biochemical; design: expressed in transfected cells; host or cells: rat 1A cells infected with pMV7 retrovirus; microsomes;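 further: labeled testosterone and its product dihydrotestosterone measured in microsomal reaction extracts via thin layer chromatography plus radioanalytic scanning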
T1 sequence (P31213 1-254): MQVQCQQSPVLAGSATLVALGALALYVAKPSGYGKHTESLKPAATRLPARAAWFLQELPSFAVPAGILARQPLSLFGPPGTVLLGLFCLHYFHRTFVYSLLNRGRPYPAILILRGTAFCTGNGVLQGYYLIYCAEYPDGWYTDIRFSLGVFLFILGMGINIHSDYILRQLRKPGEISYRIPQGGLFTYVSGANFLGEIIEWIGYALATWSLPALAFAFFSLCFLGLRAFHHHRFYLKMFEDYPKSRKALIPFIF

[2] = biological target: T2, type 1 human 5α-reductase (HRED1) (Homo sapiens, UniProt P18405); test: Cell free assay of 5α-reductase, microsomes of rat 1A cells expressing type 1 isoenzyme (HRED1); type: biochemical; design: expressed in transfected cells; host or cells: rat 1A cells infected with pMV7 retrovirus; microsomes;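 further: microsomes from rat 1A cells expressing human type 1 5α-reductase, conversion of radiolabeled testosterone to dihydrotestosterone quantified by thin layer chromatography with radioanalytic scanning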
T2 sequence (P18405 1-259): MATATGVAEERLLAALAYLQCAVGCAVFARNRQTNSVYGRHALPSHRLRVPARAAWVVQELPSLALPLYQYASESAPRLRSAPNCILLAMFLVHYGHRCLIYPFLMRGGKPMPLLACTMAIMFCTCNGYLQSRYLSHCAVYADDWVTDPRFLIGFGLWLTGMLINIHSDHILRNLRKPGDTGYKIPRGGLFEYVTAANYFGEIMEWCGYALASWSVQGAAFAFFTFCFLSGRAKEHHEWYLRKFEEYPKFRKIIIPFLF

[3] = 100 uM, cell free assay, Table 2, read-out: HRED2 % Inhibition @ 100 uM
[4] = 100 uM, cell free assay, Table 2, read-out: HRED1 % Inhibition @ 100 uM
[5] = cell free assay, Table 2 catechols, read-out: HRED1 IC50
[6] = 100 uM, cell free assay, Table 3, read-out: HRED2 % Inhibition @ 100 uM
[7] = 100 uM, cell free assay, Table 3, read-out: HRED1 % Inhibition @ 100 uM
[8] = cell free assay, Table 3 curcumin and related compounds, read-out: HRED1 IC50
[9] = 100 uM, cell free assay, Table 1
[10] = cell free assay, Table 1 flavanoids, read-out: HRED2 IC50
[11] = cell free assay, Table 1 flavanoids, read-out: HRED1 IC50
[12] = 100 μM, cell free assay, Table 4, read-out: HRED2 % Inhibition @ 100 μM
[13] = cell free assay, Table 4 quinones, read-out: HRED2 IC50
[14] = 100 μM, cell free assay, Table 4, read-out: HRED1 % Inhibition @ 100 μM
[15] = cell free assay, Table 4 quinones, read-out: HRED1 IC50
[16] = 100 μM, cell free assay, Table 4
[17] = cell free assay, Table 2 catechols, read-out: HRED2 IC50
[18] = 100 uM, cell free assay, Table 2
[19] = read-out: IC50, type 2 isoenzyme
[20] = cell-free assay, read-out: IC50, type 1 isoenzyme
[21] = 100 uM, cell free assay, Table 3
[22] = cell free assay, Table 3 curcumin and related compounds, read-out: HRED2 IC50
[23] = 100 μM, cell free assay, Table 5
[24] = cell free assay, Table 5 epigallocatechin derivatives, read-out: HRED2 IC50
[25] = cell free assay, Table 5 epigallocatechin derivatives, read-out: HRED1 IC50

O=C1C=CC(=C(c2ccc(O)c(O)c2)c2ccccc2S(=O)(=O)O)C=C1O (mixture of isomers) [Pyrocatechol Violet]
inhibition at 100 µM [1, 3]: 47% | inhibition at 100 µM [2, 4]: 85% | IC50 [2, 5]: 48 µM

COc1cc(C=CC=O)ccc1O [4-hydroxy-3-methoxycinnamaldehyde]
inhibition at 100 µM [1, 6]: -60% | IC50 ([1]; read-out: HRED2 IC50): > 100 µM | inhibition at 100 µM [2, 7]: 10% | IC50 [2, 8]: > 100 µM

O=c1cc(-c2ccccc2)oc2c1ccc1ccccc12 [Alpha-napthoflavone]
HRED2 % Inhibition @ 100 uM [1, 9]: (−13) % | IC50 [1, 10]: > 100 µM | HRED1 % Inhibition @ 100 uM [2, 9]: 6% | IC50 [2, 11]: > 100 µM

O=C1c2ccc(O)cc2C(=O)c2ccc(O)cc21 [Anthraflavic Acid]
inhibition at 100 µM [1, 12]: 22% | IC50 [1, 13]: > 100 µM | inhibition at 100 µM [2, 14]: 27% | IC50 [2, 15]: > 100 µM

O=C1c2ccccc2C(=O)c2ccccc21 [Anthraquinone]
IC50 [1]: > 100 µM | inhibition at 100 µM ([1]; read-out: HRED2 % Inhibition @ 100 μM): 9% | IC50 ([1]; read-out: HRED2 IC50, cell free assay, Table 4 quinones): > 100 µM | IC50 [2]: > 100 µM | inhibition at 100 µM ([2]; read-out: HRED1 % Inhibition @ 100 μM): 6% | IC50 ([2]; read-out: HRED1 IC50, cell free assay, Table 4 quinones): > 100 µM

O=C1c2cccc(O)c2C(=O)c2cccc(O)c21 [Anthrarufin]
HRED2 % Inhibition @ 100 μM [1, 16]: 13% | inhibition at 100 µM [1, 12]: 13% | IC50 [1, 13]: > 100 µM | HRED1 % Inhibition @ 100 μM [2, 16]: 67% | inhibition at 100 µM [2, 14]: 67% | IC50 [2, 15]: 40 µM

O=c1cc(-c2ccccc2)oc2ccc3ccccc3c12 [Beta-napthoflavone]
HRED2 % Inhibition @ 100 uM [1, 9]: 4% | IC50 [1, 10]: > 100 µM | HRED1 % Inhibition @ 100 uM [2, 9]: 3% | IC50 [2, 11]: > 100 µM

O=c1c(Br)cc2c(-c3ccccc3S(=O)(=O)O)c3cc(Br)c(O)c(O)c3oc-2c1O [Bromopyrogallol Red]
inhibition at 100 µM [1, 3]: 58% | IC50 [1, 17]: 84 µM | inhibition at 100 µM [2, 4]: 98% | IC50 [2, 5]: 7 µM

COc1cc(CNC(=O)CCCC/C=C/C(C)C)ccc1O [Capsaicin]
IC50 [1]: > 100 µM | inhibition at 100 µM [1, 6]: 8% | IC50 ([1]; read-out: HRED2 IC50): > 100 µM | IC50 [2]: > 100 µM | inhibition at 100 µM [2, 7]: 0% | IC50 [2, 8]: > 100 µM

O=c1cc(-c2ccccc2)oc2cc(O)cc(O)c12 [Chrysin]
IC50 [1, 10]: > 100 µM | IC50 [2, 11]: > 100 µM

OC1c2ccccc2-c2ccccc2C1O (stereo not shown) [Cnc]
HRED2 % Inhibition @ 100 uM [1, 18]: (−75) % | IC50 [1, 17]: > 100 µM | HRED1 % Inhibition @ 100 uM [2, 18]: 42% | IC50 [2, 5]: > 100 µM

COC1=C(OC)C(=O)C(C/C=C(\C)CC/C=C(\C)CC/C=C(\C)CC/C=C(\C)CC/C=C(\C)CC/C=C(\C)CC/C=C(\C)CC/C=C(\C)CC/C=C(\C)CCC=C(C)C)=C(C)C1=O [Coenzyme q]
HRED2 % Inhibition @ 100 μM [1, 16]: 81% | IC50 [1, 13]: 22 µM | inhibitory activity against type 2 isoenzyme, in words ([1]; cell-free assay): potent cell-free inhibitors | HRED1 % Inhibition @ 100 μM [2, 16]: 77% | IC50 [2, 15]: 12 µM | inhibitory activity against type 1 isoenzyme, in words ([2]; cell-free assay): potent cell-free inhibitors

COc1cc(/C=C/CO)ccc1O [Coniferol]
IC50 [1, 19]: > 100 µM | IC50 [2, 8]: > 100 µM | IC50 [2, 20]: > 100 µM

CC(/C=C/C=C(\C)C(=O)O)=C\C=C\C=C(C)\C=C\C=C(/C)C(=O)O [Crocetin]
IC50 ([1]; cell free assay, Table 6 fatty acids, read-out: HRED2 IC50): > 100 µM | IC50 ([2]; cell free assay, Table 6 fatty acids, read-out: HRED1 IC50): 7 µM

COc1cc(CCC(=O)CC(=O)CCc2ccc(O)cc2)ccc1O [Demethoxytetrahydrocurcumin]
HRED2 % Inhibition @ 100 uM [1, 21]: 42% | IC50 [1, 22]: > 100 µM | HRED1 % Inhibition @ 100 uM [2, 21]: 23% | IC50 [2, 8]: > 100 µM

O=c1oc2c(O)c(O)cc3c(=O)oc4c(O)c(O)cc1c4c23 [Ellagic Acid]
inhibition at 100 µM [1, 3]: 9% | IC50 [1, 17]: > 100 µM | inhibition at 100 µM [2, 4]: 7% | IC50 [2, 5]: > 100 µM

C=CCc1ccc(O)c(OC)c1 [Eugenol]
inhibition at 100 µM ([1]; read-out: HRED2 % Inhibition @ 100 uM): 50% | IC50 [1, 19]: > 100 µM | IC50 [2, 8]: > 100 µM | IC50 [2, 20]: > 100 µM | inhibition at 100 µM ([2]; read-out: HRED1 % Inhibition @ 100 uM): 0%

O=c1ccc2cc(O)c(O)cc2o1 [Exculetin]
HRED2 % Inhibition @ 100 uM [1, 18]: 13% | IC50 [1, 17]: > 100 µM | HRED1 % Inhibition @ 100 uM [2, 18]: 7% | IC50 [2, 5]: > 100 µM

COc1cc(/C=C/C(=O)O)ccc1O [Ferulic Acid]
inhibition at 100 µM [1, 6]: 18% | IC50 [1, 22]: > 100 µM | IC50 ([1]; cell-free assay, read-out: IC50, type 2 isoenzyme): > 100 µM | inhibition at 100 µM [2, 7]: 0% | IC50 [2, 8]: > 100 µM | IC50 [2, 20]: > 100 µM

O=c1cc(-c2ccccc2)oc2ccccc12 [Flavone]
inhibition at 100 µM ([1]; 100 uM, cell free assay, Table 1, read-out: HRED2 % Inhibition @ 100 uM): -52% | IC50 [1, 10]: > 100 µM | inhibition at 100 µM ([2]; 100 uM, cell free assay, Table 1, read-out: HRED1 % Inhibition @ 100 uM): 20% | IC50 [2, 11]: > 100 µM

COc1cc2ccc(=O)oc2c(O)c1O [Fraxetin]
IC50 [1, 17]: > 100 µM | IC50 [2, 5]: > 100 µM

O=C(OC1Cc2c(O)cc(O)cc2OC1c1cc(O)c(O)c(O)c1)c1ccccc1 (stereo not shown) [HZIV 74]
HRED2 % Inhibition @ 100 μM [1, 23]: 24% | IC50 [1, 24]: > 100 µM | HRED1 % Inhibition @ 100 μM [2, 23]: 85% | IC50 [2, 25]: 48 µM

O=C(O)OC1Cc2c(O)cc(O)cc2OC1c1cc(O)c(O)c(O)c1 (stereo not shown) [HZIV 109]
HRED2 % Inhibition @ 100 μM [1, 23]: 0% | IC50 [1, 24]: > 100 µM | HRED1 % Inhibition @ 100 μM [2, 23]: 17% | IC50 [2, 25]: > 100 µM

O=C(C=Cc1cc(O)c(O)c(O)c1)OC1Cc2c(O)cc(O)cc2OC1c1cc(O)c(O)c(O)c1 (stereo not shown) [HZIV 134]
HRED2 % Inhibition @ 100 μM [1, 23]: 94% | IC50 [1, 24]: 67 µM | HRED1 % Inhibition @ 100 μM [2, 23]: 99% | IC50 [2, 25]: 20 µM

O=C(NCCc1cc(O)c(O)c(O)c1)c1cc(O)c(O)c(O)c1 [HZIV 275]
HRED2 % Inhibition @ 100 uM [1, 18]: 6% | IC50 [1, 17]: > 100 µM | HRED1 % Inhibition @ 100 uM [2, 18]: 10% | IC50 [2, 5]: > 100 µM

Oc1cc2c(cc1O)[C@@H]1c3ccc(O)c(O)c3OC[C@]1(O)C2 [Hematoxylin]
inhibition at 100 µM [1, 3]: 38% | IC50 [1, 17]: > 100 µM | inhibition at 100 µM [2, 4]: 59% | IC50 [2, 5]: 83 µM

NCCc1cc(O)c(O)c(O)c1 [Hydroxydopamine]
HRED2 % Inhibition @ 100 uM [1, 18]: 41%

CC(C)=CCC1=C(O)C(=O)c2ccccc2C1=O [Lapachol]
inhibition at 100 µM [1, 12]: 9% | IC50 [1, 13]: > 100 µM | inhibition at 100 µM [2, 14]: 30% | IC50 [2, 15]: > 100 µM

O=c1c(O)c(-c2ccc(O)cc2O)oc2cc(O)cc(O)c12 [Morin]
IC50 [1, 10]: > 100 µM | IC50 [2, 11]: > 100 µM

O=c1c(O)cccc2cc(O)c(O)c(O)c12 [Purpurogallin]
IC50 [1, 17]: > 100 µM | IC50 [2, 5]: 30 µM

O=c1ccc2c(-c3ccccc3S(=O)(=O)O)c3ccc(O)c(O)c3oc-2c1O [Pyrogallol Red]
IC50 [1, 17]: > 100 µM | IC50 [2, 5]: 15 µM
